From US20220089679A1, “FUSION PROTEIN WITH IMMUNOSUPPRESSIVE ACTIVITY” (FUNDACIÓ INSTITUT D'INVESTIGACIÓ BIOMÈDICA DE BELL, priority 2019, published 2022)

How the values were obtained:
[1] = tested on: NZB/W F1 hybrid mice; experiment: Murine lupus nephritis; format: in vivo; details: for mortality / survival: up to the end of experiments at 32 weeks, Hybri 20 mg/kg ip days 0, 4, 14, 28, 56, 84, CYP 50 mg/kg ip every 10 days, versus PBS
From the text: NZB/W F1 hybrid mice spontaneously develop a disease closely resembling human systemic lupus erythematous (SLE) with severe renal involvement, which is the main cause of animal mortality. In fact, this model, with a well-characterized evolution of renal disease, has been widely used to study the therapeutic potential of several new agents for SLE, as previously reported (Ripoll et al., “CD40 gene silencing reduces the progression of experimental lupus nephritis modulating local milieu and systemic mechanisms”, PLoS One, 2013, vol. 8(6)).
From 20 weeks of age, and close to a potential therapeutic schedule in humans, mice (n=9) received Hybri intraperitoneally (ip) at 20 mg/kg on days 0, 4, 14, 28, 56 and 84; or CYP (n=8) ip. at 50 mg/kg every 10 days; or 200 μl PBS ip. twice a week (n=8).

[2] = tested on: Lewis rats transplanted with a single kidney from a Wistar donor rat; experiment: Rat renal allotransplantation (life-sustaining renal transplantation model); format: in vivo; details: 500 μg intraperitoneally 2 hours before transplantation, then daily for 6 days, followed for 3 weeks, versus non-treated group, p<0.05
From the text: A model of life-sustaining renal transplantation previously described (De Ramon et al., “CD154-CD40 T-cell co-stimulation pathway is a key mechanism in kidney ischemia-reperfusion injury”, Kidney Int., 2015, vol. 88(3), pp. 538-49) was used to test the therapeutic effects of the fusion protein. It is known that in experimental renal transplantation with highly alloreactive donor-recipient combination, severe acute rejection results in high recipients' mortality.
Briefly, Lewis rats were bi-nephrectomized and subsequently transplanted with a single kidney from a Wistar donor rat. […] In the control group, recipient Lewis rats received no treatment. Transplanted rats were followed for 3 weeks.

[3] = tested on: Wistar rats with 40 minutes of bilateral renal ischemia
Procedure: Rats were sham operated or suffered from renal warm ischemia and were treated with the fusion protein of the invention of sequence SEQ ID NO: 6 (Hybri) at 20 mg/kg ip. 24 hours before renal ischemia; and in the control ischemic group rats received PBS.

[4] = tested on: CD3+ T cell proliferation; experiment: Mixed lymphocyte reaction (MLR) in vitro proliferation assay; format: cell-based, human; details: for decrease of CD3+ cells proliferation: 6 days, as compared to spontaneous proliferation without immunosuppressive agents (MLR), two responder subjects
Procedure: Mixed Lymphocyte reactions (MLR) were performed in the presence or absence of different immunosuppressive drugs to test their inhibitory effect on T cell proliferation, following conventional methodology (Levitsky J, et al., “Allospecific regulatory effects of sirolimus and tacrolimus in the human mixed lymphocyte reaction”, Transplantation, 2011, vol. 91(2), pp. 199-206).
Briefly, peripheral blood mononuclear cells (PBMC) from healthy controls were used as responder cells. CD3^+-depleted splenocytes extracted from deceased donors and mature dendritic cells (DCs) were extracted with CD2 positive selection cocktail (Stem Cell Technologies, France) following manufacturer's instructions and they were used as stimulators in the assay. PBMC from peripheral blood samples and splenocytes were isolated by standard Ficoll density gradient centrifugation (Bargalló M E. et al., “Utility of Systematic Isolation of immune cell subsets from HIV-infected individuals for miRNA profiling”, J Immunol Methods, 2017, vol. 442, pp. 12-19). In order to obtain mature DCs, monocytes were isolated from PBMC by negative selection with Human monocyte enrichment kit (Stem Cell Technologies, France) following manufacturer's instructions, cultured for 6 days with complete Ex-vivo medium supplemented with 2% of human serum (Sigma Aldrich), GMSF (15 ng/ml; R&D) and IL-4 (10 ng/ml; Sigma Aldrich) (37° C. 5% CO2), and stimulated with LPS (1 μg/ml; Sigma Aldrich) for 24 h.
First, PBMC were stained with carboxyfluorescein succinimidyl ester (CFSE) (Lloberas N, et al., “Dendritic cells phenotype fitting under hypoxia or lipopolysaccharide; adenosine 5′-triphosphate-binding cassette transporters far beyond an efflux pump”, Clin Exp Immunol., 2013, vol. 172(3), pp. 444-54). […] At day 6, cells were harvested and stained for CD3-APC and CD4-PE (BD Bioscience, San Jose, Calif., USA) 20 minutes in the dark following manufacturer's instructions, and T-cell proliferation were analyzed by flow cytometry (BD FACS CANTO 11, San Jose, Calif., USA) using Facs Diva software and following manufacturer's instructions.
The in vitro proliferation assay was performed with high HLA-mismatch combination between 2 stimulator DCs and two corresponding responder subjects ([…], S2) T cells.

Compound | albuminuria (albuminuria/creatininuria ratio) ([1]; at 3 months of therapy) | mortality / survival [1] | survival [2] | survival ([2]; listed as fusion polypeptide) | anti-DNA antibodies in serum ([1]; FIG. 8B) | albuminuria (albuminuria/creatininuria ratio) ([1]; mouse, in vivo) | mortality / survival ([1]; listed as fusion polypeptide) | preservation of renal structure ([3]; 20 mg/kg ip. 24 hours before renal ischemia) | renal function (serum creatinine levels) ([3]; 20 mg/kg ip. 24 hours before renal ischemia, 24 hours after warm ischemia, versus PBS, p=0.0038) | T cells with regulatory phenotype (Tregs) per high power field in renal parenchyma ([3]; compared to non-treated ischemic kidneys) | renal failure in sham operated rats ([3]; rat, in vivo) | inhibition of mature CD3+ T cell proliferation (in words) ([4]; 10 μg/mL and 20 μg/mL, compared with tacrolimus (10 nM), FIG. 5) | decrease of CD3+ cells proliferation ([4]; 10 μg/mL) | decrease of CD3+ cells proliferation ([4]; 20 μg/mL) | reduction in T cell proliferation (immunosuppressive effect, FIG. 5) ([4]; summary statement of FIG. 5)
O=P1(N(CCCl)CCCl)NCCCO1 (stereo not shown) [CYP, cyclophosphamide, reference compound] | reducing albuminuria | no mortality | – | – | – | – | – | – | – | – | – | – | – | – | –
Hybri: fusion protein of human PDL2 extracellular domain, (GGGGS)3 linker, human CTLA4 extracellular domain, Fc of human IgG, poly-histidine tag; SEQ ID NO: 6 | – | no mortality | significantly higher survival | strongly improved the survival | effectively reduced anti-DNA antibodies to similar levels than CYP | as efficient as CYP in reducing albuminuria | strongly improved the survival | better preservation of renal structure | significantly improved renal function | increased | did not develop renal failure | strongly inhibit | 97%-99% | 94%-99% | nearly complete
